One may read the IC50 as the concentration that inhibits the measured activity by half. Read a low IC50 as greater potency. The logD is the decadic logarithm of the distribution of all forms, ionised or not, between an organic phase and buffer at a given pH. Read a low logD as a more hydrophilic compound.

The values below come from ChEMBL document CHEMBL4190175 (Medchemcomm, 2016).

Structures are written as SMILES. The source made the active and inactive calls. The rule behind the calls is not given here.

The target of data set [1] is T1, Transient receptor potential cation channel subfamily A member 1 (Homo sapiens, UniProt O75762). Kind of data set: Antagonist activity at full length human TRPA1 at holding potential of 15 mV measured after 1 min by PatchXpress electrophysiology assay.
T1 sequence (O75762 whole entry): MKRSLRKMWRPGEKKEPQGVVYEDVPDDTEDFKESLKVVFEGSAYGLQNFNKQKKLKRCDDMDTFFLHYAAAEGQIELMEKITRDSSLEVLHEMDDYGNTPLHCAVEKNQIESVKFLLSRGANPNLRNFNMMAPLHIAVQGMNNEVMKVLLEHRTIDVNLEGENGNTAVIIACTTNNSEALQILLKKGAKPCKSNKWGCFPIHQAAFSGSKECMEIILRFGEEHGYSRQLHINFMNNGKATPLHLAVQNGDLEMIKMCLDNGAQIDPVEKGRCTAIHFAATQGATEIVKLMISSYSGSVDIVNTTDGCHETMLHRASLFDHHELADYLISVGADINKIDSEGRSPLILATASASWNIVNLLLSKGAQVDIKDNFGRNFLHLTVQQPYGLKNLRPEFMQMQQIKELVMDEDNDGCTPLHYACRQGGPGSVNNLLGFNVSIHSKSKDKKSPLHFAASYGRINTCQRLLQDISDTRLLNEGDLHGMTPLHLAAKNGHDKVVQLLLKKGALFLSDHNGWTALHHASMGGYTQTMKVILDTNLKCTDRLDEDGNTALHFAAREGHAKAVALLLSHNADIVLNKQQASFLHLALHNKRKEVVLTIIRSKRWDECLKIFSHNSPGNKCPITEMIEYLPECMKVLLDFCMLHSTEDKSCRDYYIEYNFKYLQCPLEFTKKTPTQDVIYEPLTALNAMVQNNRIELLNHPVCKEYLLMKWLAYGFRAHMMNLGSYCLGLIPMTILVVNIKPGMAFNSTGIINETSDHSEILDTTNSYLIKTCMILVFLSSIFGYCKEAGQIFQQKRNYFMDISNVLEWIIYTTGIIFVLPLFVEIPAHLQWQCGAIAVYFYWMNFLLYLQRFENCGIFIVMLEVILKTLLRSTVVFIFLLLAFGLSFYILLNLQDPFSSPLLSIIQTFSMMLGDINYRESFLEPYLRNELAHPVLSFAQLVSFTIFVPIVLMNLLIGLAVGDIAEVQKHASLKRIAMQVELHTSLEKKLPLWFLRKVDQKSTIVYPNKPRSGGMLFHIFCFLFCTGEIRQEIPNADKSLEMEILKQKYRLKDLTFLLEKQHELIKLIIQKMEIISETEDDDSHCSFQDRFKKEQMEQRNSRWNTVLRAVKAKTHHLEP
Data set [2] can be described thus: Stability in human liver microsomes assessed as metabolic turnover number at 10 uM after 15 mins by LC-MS/UV analysis. In kind it is ADME, microsome. As to conditions: read-out: Stability. A general note: Liver microsomes are vesicles of endoplasmic reticulum, rich in cytochrome P450 enzymes.
The target of data set [3] is T1, Transient receptor potential cation channel subfamily A member 1. Kind of data set: Antagonist activity at full length human TRPA1 expressed in 293-T-REx cells by FLIPR assay.
Data set [4] can be described thus: Passive permeability of the compound in RRCK cells. The data set is classed as ADME, cell-based, Canis lupus familiaris, MDCKII-LE. The note with it: dog, MDCK; read-out: permeability.
Data set [5] is described as follows: Lipophilicity, log D of the compound. In kind it is physicochemical. The note with it: octanol/water.
Data set [6] is described as follows: Ratio of permeability from basolateral to apical side over apical to basolateral side in RRCK cells expressing MDR1. In kind it is ADME, cell-based, Canis lupus familiaris. As to conditions: dog, mdckii-le.
In data set [7] the target is Transient receptor potential cation channel subfamily A member 1 (Rattus norvegicus, UniProt Q6RI86). Kind of data set: Antagonist activity at rat TRPA1 by electrophysiology assay.
Sequence of Transient receptor potential cation channel subfamily A member 1 (Rattus norvegicus, UniProt Q6RI86) (Q6RI86 whole entry): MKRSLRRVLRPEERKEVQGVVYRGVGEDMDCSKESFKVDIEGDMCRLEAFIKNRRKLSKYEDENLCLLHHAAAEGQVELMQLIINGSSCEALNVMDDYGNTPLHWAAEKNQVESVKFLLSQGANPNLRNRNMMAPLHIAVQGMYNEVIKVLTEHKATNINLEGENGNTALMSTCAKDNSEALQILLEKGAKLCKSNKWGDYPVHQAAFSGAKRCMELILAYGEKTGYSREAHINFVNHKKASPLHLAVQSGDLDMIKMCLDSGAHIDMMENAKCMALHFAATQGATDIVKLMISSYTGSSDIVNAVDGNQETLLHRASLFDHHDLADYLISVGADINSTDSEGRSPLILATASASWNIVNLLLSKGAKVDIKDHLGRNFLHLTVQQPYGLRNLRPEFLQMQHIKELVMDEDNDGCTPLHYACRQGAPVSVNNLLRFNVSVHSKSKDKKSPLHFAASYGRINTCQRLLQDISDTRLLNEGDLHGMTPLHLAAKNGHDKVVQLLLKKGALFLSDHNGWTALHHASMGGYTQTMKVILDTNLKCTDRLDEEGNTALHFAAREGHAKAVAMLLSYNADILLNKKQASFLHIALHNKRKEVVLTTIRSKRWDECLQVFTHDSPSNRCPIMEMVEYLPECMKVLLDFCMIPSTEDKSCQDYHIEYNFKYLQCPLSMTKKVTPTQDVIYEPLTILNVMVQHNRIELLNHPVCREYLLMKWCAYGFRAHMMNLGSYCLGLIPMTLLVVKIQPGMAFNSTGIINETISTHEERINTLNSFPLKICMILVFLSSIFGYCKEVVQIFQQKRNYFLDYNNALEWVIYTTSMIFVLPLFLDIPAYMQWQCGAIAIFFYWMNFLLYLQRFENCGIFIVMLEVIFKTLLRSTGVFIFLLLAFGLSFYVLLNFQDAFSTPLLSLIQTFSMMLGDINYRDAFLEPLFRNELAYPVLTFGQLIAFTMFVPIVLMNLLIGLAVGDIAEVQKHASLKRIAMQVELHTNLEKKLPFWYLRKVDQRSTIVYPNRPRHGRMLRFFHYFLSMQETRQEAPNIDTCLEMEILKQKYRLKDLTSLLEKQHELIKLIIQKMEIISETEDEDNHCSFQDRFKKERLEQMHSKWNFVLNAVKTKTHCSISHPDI
Data set [8] in a line: Drug uptake in Sprague-Dawley rat skin dermal layer at 0.68 mg applied topically measured after 24 hrs. The data set is classed as ADME, tissue-based, Dermis. The note with it: topical or ocular, read-out: Drug uptake.
A short description of data set [9]: Drug uptake in Sprague-Dawley rat skin epidermal layer at 0.68 mg applied topically measured after 24 hrs. In kind it is ADME, tissue-based, Skin epidermis. The note with it: topical or ocular, read-out: Drug uptake.
For data set [10], the system named is Rattus norvegicus. Kind of data set: Suppression of cinnamaldehyde-induced flare response in Sprague-Dawley rat skin at 50 to 100 mg/kg administered topically measured after 30 to 90 mins by recording blood flow for 30 mins by laser Doppler sonography method. The data set is classed as functional, organism-based.
For data set [11], the system named is Rattus norvegicus. The data set is described as follows: Suppression of cinnamaldehyde-induced flare response in Sprague-Dawley rat skin at 50 to 100 mg/kg administered topically preincubated for 30 to 90 mins measured by recording blood flow for 30 mins by laser Doppler sonography method. In kind it is functional, organism-based.

In the case of `O=C(NC[C@H](Cc1ccccc1)N1CCC(O)(C(F)(F)F)CC1)C1(c2ccc(Cl)cc2)CC1`, the IC50 in [1] came out at 474 nM. Moreover, the microsomal CLint at 10 µM in data set [2] is > 320 µL/min/mg.

Regarding `CCCC(C)(C)C(=O)NC[C@@H](Cc1ccccc1)N1CCC(O)(C(F)(F)F)CC1`, it took 71 nM to reach half-maximal inhibition in data set [3] (IC50).

`O=C(NC[C@@H](Cc1ccccc1)N1CCC(O)(C(F)(F)F)CC1)C1(c2ccc(Cl)cc2)CC1`: the IC50 in [1] turned out to be 53 nM. In data set [2], the microsomal CLint at 10 µM is > 320 µL/min/mg.

Turning to `O=C(NC[C@H](Cc1ccccc1)N1CCC(O)(C(F)(F)F)CC1)C1(c2ccc(Cl)cc2)CCCC1`, the Papp in data set [4] amounted to 1 ×10⁻⁶ cm/s. The logD in data set [5] came out at 4.7. The Ratio in data set [6] worked out at 1. This compound also came in with a 50% inhibitory concentration (IC50) in data set [1] of 1900 nM. In [2], the microsomal CLint at 10 µM was > 320 µL/min/mg.

With `O[C@]12CCCC[C@@H]1CCC[C@H]2Nc1ccc(F)cc1`, the values for the IC50 in [7] and in [1] were 8 nM and 10 nM, respectively. Besides, the results for the concentration at 24 h in data set [8] and in [9] were 232000 ng/g and 86000 ng/g, respectively.

With `CCCC(C)(C)C(=O)NC[C@H](Cc1ccccc1)N1CCC(O)(C(F)(F)F)CC1`, the IC50 in data set [3] was found to be 1700 nM.

As to `O=C(NCC(Cc1ccccc1)N1CCC(O)(C(F)(F)F)CC1)C1(c2ccc(Cl)cc2)CCCC1` (racemic), the Papp in [4] stood at 1 ×10⁻⁶ cm/s. Besides, the outcome with Rattus norvegicus [10] and in the data set on Rattus norvegicus [11] was Active. The half-maximal inhibitory concentration (IC50) in [1] was found to be 17 nM; in [3], 374 nM. The microsomal CLint at 10 µM in data set [2] is > 320 µL/min/mg.

On to `O=C(NCC(Cc1ccccc1)N1CCC(O)(C(F)(F)F)CC1)C1(c2ccc(Cl)cc2)CC1` (racemic), for which the Papp in data set [4] was found to be 2 ×10⁻⁶ cm/s. The midpoint of inhibition in [1], the IC50, lay at 73 nM. Also, the microsomal CLint at 10 µM in [2] was > 320 µL/min/mg.

In turn, `CC1(C(=O)NCC(Cc2ccccc2)N2CCC(O)(C(F)(F)F)CC2)CCCCC1` (racemic) returned an IC50 in data set [1] of 851 nM. For the same compound, the microsomal CLint at 10 µM in [2] was > 320 µL/min/mg.

With `CN1CCC(CC(CNC(=O)C2(c3ccc(Cl)cc3)CCCC2)N2CCC(O)(C(F)(F)F)CC2)CC1` (racemic), the Papp in data set [4] is 1 ×10⁻⁶ cm/s. Further, the IC50 in data set [1] is 26700 nM. The microsomal CLint at 10 µM in data set [2] was found to be 42 µL/min/mg.

As for `CC(C)(C)[C@H]1CC[C@H](C(=O)NCC(Cc2ccccc2)N2CCC(O)(C(F)(F)F)CC2)CC1` (mixture of isomers), in data set [1], half-maximal inhibition (IC50) was put at 101 nM. In addition, the microsomal CLint at 10 µM in data set [2] is > 320 µL/min/mg.

In data set [1], `O=C(NCC(Cc1ccc(F)cc1)N1C2CCC1CC(O)(C(F)(F)F)C2)C1(c2ccc(F)cc2)CCCC1` (racemic) came in with an IC50 of 825 nM. Further, in [2], the microsomal CLint at 10 µM was > 320 µL/min/mg.

On to `Cc1nc(C(=O)NCC(Cc2ccccc2)N2CCC(O)(C(F)(F)F)CC2)c(C(F)(F)F)o1` (racemic), for which, in data set [2], the microsomal CLint at 10 µM turned out to be 146 µL/min/mg. Also, the IC50 in [3] was > 10000 nM.

In the case of `O=C(NCC(Cc1ccc(F)cc1)N1CC2CCC1C2)C1(c2ccc(F)cc2)CC1` (racemic), the microsomal CLint at 10 µM in data set [2] is > 320 µL/min/mg. Besides, in data set [3], the IC50 is > 10000 nM.

For `CN(CC(Cc1ccccc1)N1CCC(O)(C(F)(F)F)CC1)C(=O)C1(c2ccc(Cl)cc2)CCCC1` (racemic), the IC50 in [1] is > 1000 nM. Besides, the microsomal CLint at 10 µM in [2] is > 320 µL/min/mg.

Take `O=C(NCC(Cc1ccccc1)N1CCC(O)(C(F)(F)F)CC1)c1cc(C(F)(F)F)ccn1` (racemic): the Papp in data set [4] came out at 8 ×10⁻⁶ cm/s. In data set [1], this compound registered an IC50 of 83 nM. In addition, the microsomal CLint at 10 µM in data set [2] amounted to 285 µL/min/mg.

`CC(C)c1csc(C(=O)NCC(Cc2ccccc2)N2CCC(O)(C(F)(F)F)CC2)n1` (racemic): in [1], the IC50 is 159 nM. Also, in data set [2], the microsomal CLint at 10 µM is > 320 µL/min/mg.

Take `O=C1CCC2(CCN(C(CNC(=O)C3(c4ccc(F)cc4)CC3)Cc3ccc(F)cc3)CC2)N1` (racemic): the microsomal CLint at 10 µM in data set [2] stood at 168 µL/min/mg. For the same compound, the IC50 in [3] is > 10000 nM.

On to `O=C(NCC(Cc1ccc(F)cc1)N1CCC2(C1)CC2(F)F)C1(c2ccc(F)cc2)CCCC1` (racemic), for which the Papp in data set [4] worked out at 0.3 ×10⁻⁶ cm/s. For the same compound, in data set [2], the microsomal CLint at 10 µM was > 320 µL/min/mg. For the same compound, the IC50 in [3] is > 10000 nM.

For `CC(C)C(CNC(=O)C1(c2ccc(Cl)cc2)CCCC1)N1CCC(O)(C(F)(F)F)CC1` (racemic), in data set [4], the Papp is < 1 ×10⁻⁶ cm/s. Also, the IC50 in data set [1] was > 1000 nM. Further, the microsomal CLint at 10 µM in [2] is > 320 µL/min/mg.

Consider `CC(C)(C(=O)NCC(Cc1ccccc1)N1CCC(O)(C(F)(F)F)CC1)C(F)(F)F` (racemic), for which the Papp in data set [4] was determined as 31 ×10⁻⁶ cm/s. The same compound displayed an IC50 in data set [1] of 91 nM. Besides, in data set [2], the microsomal CLint at 10 µM was 284 µL/min/mg.

With `CC(C)(C)c1ccc(CC(=O)NCC(Cc2ccccc2)N2CCC(O)(C(F)(F)F)CC2)cc1` (racemic), in data set [2], the microsomal CLint at 10 µM was > 320 µL/min/mg. The IC50 in data set [3] is > 10000 nM.

For `O=C(NCC(CC1CCOCC1)N1CCC(O)(C(F)(F)F)CC1)C1(c2ccc(Cl)cc2)CCCC1` (racemic), in data set [4], the Papp worked out at 3 ×10⁻⁶ cm/s. In addition, half-maximal inhibition in [1] (IC50) was put at 1900 nM. Moreover, in data set [2], the microsomal CLint at 10 µM is > 320 µL/min/mg.

Take `O=C(NCC(Cc1ccccc1)N1CCC(O)(C(F)(F)F)CC1)C1(C(F)(F)F)CC1` (racemic): in [1], the IC50 amounted to 1000 nM. In [2], the microsomal CLint at 10 µM worked out at 149 µL/min/mg.

`O=C(NCC(Cc1ccc(F)cc1)N1CCC(O)C1)C1(c2ccc(F)cc2)CCCC1` (racemic): in data set [2], the microsomal CLint at 10 µM stood at 170 µL/min/mg. Also, the IC50 in data set [3] is > 10000 nM.

Turning to `O=C(NCC(Cc1ccccc1)N1CCC(C(F)(F)F)CC1)C1(c2ccc(F)cc2)CCCC1` (racemic), in data set [4], the Papp is 6 ×10⁻⁶ cm/s. For the same compound, in data set [1], the 50% inhibitory concentration (IC50) worked out at 673 nM. Also, the microsomal CLint at 10 µM in data set [2] was found to be 238 µL/min/mg.

For `O=C(NCC(Cc1ccc(F)cc1)N1CCC2(CC1)COC2)C1(c2ccc(F)cc2)CCCC1` (racemic), the microsomal CLint at 10 µM in data set [2] was > 320 µL/min/mg. For the same compound, in data set [3], the IC50 was > 10000 nM.

On to `O=C(NCC(Cc1ccccc1)N1CCN(c2ccccn2)CC1)C1(c2ccc(Cl)cc2)CCCC1` (racemic), for which the Papp in data set [4] is < 1 ×10⁻⁶ cm/s. The IC50 in data set [1] is > 1000 nM. Besides, the microsomal CLint at 10 µM in [2] was 312 µL/min/mg.

For `O=C(NCC(Cc1ccccc1)N1CCC(O)(C(F)(F)F)C1)C1(c2ccc(F)cc2)CCC1` (racemic), it took 309 nM to reach half-maximal inhibition in data set [1] (IC50).

For the compound `CN1CCN(C(CNC(=O)C2(c3ccc(Cl)cc3)CCCC2)Cc2ccccc2)CC1` (racemic), the Papp in data set [4] was 3 ×10⁻⁶ cm/s. For the same compound, the IC50 in data set [1] is > 3000 nM. Also, the microsomal CLint at 10 µM in data set [2] was > 320 µL/min/mg.

On to `O=C(NCC(c1ccccc1)N1CCC(O)(C(F)(F)F)CC1)C1(c2ccc(Cl)cc2)CC1` (racemic), for which the Papp in data set [4] was determined as 4 ×10⁻⁶ cm/s. Further, the IC50 in [1] is > 3000 nM. The microsomal CLint at 10 µM in [2] is > 320 µL/min/mg.

`O=C(NCC(Cc1ccc(F)cc1)N1CCC(C(F)(F)F)C1)C1(c2ccc(F)cc2)CCCC1` (racemic): the IC50 in [1] is 1450 nM.
